Assay results: patent publication US11591369B2, “Alpha(v)beta(6) integrin-binding peptides and methods of use thereof” (priority 2018, dated 2023)
Where “and” joins values, the source holds several entries; their conditions need not be identical. Equal entries are not always repeated. Where two headings read alike, the source gives them in different places. Where a SMILES comes first, the peptide text is derived from it. Primed or numbered codes have the meaning given here. Where no end group is shown, it is not given here. The star is where a group is joined. (18F)FB = [18F] fluorobenzoyl group, O=C(c1ccc([18F])cc1)*; (18F)FB″ = [18F]fluorobenzoyl, O=C(c1ccc([18F])cc1)*; Benzoyl(4-F) = O=C(c1ccc(F)cc1)*; FB = fluorobenzoyl

Assays:
αvβ6 integrin = target: T1, αvβ6 integrin (Homo sapiens, UniProt P06756+P18564); assay: Competitive binding ELISA against biotinylated LAP (BtLAP), αvβ6 integrin; conditions: for fold drop in affinity for αvβ6: compared to T1
T1 construct: All purified integrins were purchased from R&D Systems (MN, USA); purchased R&D Systems (MN, USA)
T1 sequence (P06756 31-992 limits assumed): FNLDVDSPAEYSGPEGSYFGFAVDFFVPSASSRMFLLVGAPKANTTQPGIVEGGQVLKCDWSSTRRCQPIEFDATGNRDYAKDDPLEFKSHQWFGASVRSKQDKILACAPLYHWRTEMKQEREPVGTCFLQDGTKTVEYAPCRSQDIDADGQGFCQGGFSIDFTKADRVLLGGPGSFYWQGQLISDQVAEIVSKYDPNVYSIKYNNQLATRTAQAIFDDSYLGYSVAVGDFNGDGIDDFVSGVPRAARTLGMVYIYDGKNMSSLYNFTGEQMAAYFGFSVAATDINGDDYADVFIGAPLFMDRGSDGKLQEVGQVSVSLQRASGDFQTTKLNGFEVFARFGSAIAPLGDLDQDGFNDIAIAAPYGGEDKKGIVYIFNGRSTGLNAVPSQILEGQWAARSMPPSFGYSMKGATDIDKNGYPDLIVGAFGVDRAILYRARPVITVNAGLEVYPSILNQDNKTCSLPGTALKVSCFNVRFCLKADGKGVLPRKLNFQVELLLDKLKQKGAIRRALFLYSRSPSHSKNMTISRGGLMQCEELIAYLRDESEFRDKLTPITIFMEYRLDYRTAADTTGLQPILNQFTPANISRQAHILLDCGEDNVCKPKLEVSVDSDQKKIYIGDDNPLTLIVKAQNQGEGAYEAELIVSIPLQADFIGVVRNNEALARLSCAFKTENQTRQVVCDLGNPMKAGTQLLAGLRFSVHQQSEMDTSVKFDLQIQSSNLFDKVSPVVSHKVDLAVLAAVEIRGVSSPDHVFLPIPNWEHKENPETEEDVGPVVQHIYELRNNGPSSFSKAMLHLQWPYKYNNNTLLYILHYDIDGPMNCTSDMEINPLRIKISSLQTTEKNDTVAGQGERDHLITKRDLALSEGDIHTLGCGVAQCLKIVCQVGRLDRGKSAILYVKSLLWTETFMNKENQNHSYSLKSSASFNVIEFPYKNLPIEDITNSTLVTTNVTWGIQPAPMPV
T1 sequence (P18564 22-707 limits assumed): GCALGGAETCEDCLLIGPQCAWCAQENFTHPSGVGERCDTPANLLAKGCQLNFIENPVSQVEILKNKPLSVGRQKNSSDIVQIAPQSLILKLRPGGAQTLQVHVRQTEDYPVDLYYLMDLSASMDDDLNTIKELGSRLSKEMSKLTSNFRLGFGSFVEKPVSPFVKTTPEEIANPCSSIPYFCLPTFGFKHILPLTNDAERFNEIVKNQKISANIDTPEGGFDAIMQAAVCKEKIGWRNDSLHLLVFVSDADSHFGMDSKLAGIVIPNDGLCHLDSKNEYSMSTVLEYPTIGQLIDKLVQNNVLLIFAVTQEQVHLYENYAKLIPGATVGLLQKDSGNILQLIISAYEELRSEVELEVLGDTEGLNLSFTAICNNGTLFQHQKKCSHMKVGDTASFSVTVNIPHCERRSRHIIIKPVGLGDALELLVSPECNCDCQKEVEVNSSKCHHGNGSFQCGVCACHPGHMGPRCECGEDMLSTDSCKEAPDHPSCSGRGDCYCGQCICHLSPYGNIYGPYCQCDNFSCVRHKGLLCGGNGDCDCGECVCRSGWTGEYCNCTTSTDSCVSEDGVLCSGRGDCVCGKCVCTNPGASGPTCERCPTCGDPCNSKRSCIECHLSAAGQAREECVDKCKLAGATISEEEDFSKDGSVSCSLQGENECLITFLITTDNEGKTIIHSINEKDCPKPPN

[1] = Circular dichroism (CD) spectroscopy; type: physicochemical; conditions: for % Helical Content CD Buffer: 25 mM phosphate + 100 mM NaF; for % Helical Content CD Buffer + 30% TFE: buffer with 30% trifluoroethanol
DX3puroβ6 (αvβ6+) cells = assay: [18F]-radiolabeled peptide cell binding and internalization, DX3puroβ6 (αvβ6+) cells; type: cell-based, human; conditions: for binding to DX3puroβ6 (αvβ6+) cells: % of total activity, 37° C.
[2] = 37° C., 1 hour, radio-HPLC

Compound: CC(C)C[C@H](NC(=O)[C@H](Cc1ccc(O)cc1)NC(=O)[C@@H](NC(=O)[C@H](CC(C)C)NC(=O)[C@H](CC(=O)O)NC(=O)CNC(=O)[C@@H](NC(=O)CCOCCOCCOCCOCCOCCOCCOCCOCCOCCOCCOCCOCCNC(=O)c1ccc(F)cc1)C(C)C)[C@@H](C)O)C(=O)N[C@@H](CCCCN)C(=O)N[C@@H](CCC(N)=O)C(=O)N[C@@H](CCCCN)C(=O)N[C@H](C(=O)N[C@@H](C)C(=O)N[C@@H](CCCNC(=N)N)C(=O)N[C@H](C(=O)NCCOCCOCCOCCOCCOCCOCCOCCOCCOCCOCCOCCOCCOCCOCCOCCOCCOCCOCCOCCOCCOCCOCCOCCOCCOCCOCCOCCOCCC(N)=O)[C@@H](C)O)C(C)C [T1-d]
- fold drop in affinity for αvβ6 (αvβ6 integrin): 9 fold

Compound: CC(C)C[C@H](NC(=O)[C@H](Cc1ccc(O)cc1)NC(=O)[C@@H](NC(=O)[C@H](CC(C)C)NC(=O)[C@H](CC(=O)O)NC(=O)CNC(=O)[C@@H](NC(=O)CCOCCOCCOCCOCCOCCOCCOCCOCCOCCOCCOCCOCCOCCOCCOCCOCCOCCOCCOCCOCCOCCOCCOCCOCCOCCOCCOCCOCCNC(=O)c1ccc(F)cc1)C(C)C)[C@@H](C)O)C(=O)N[C@@H](CCCCN)C(=O)N[C@@H](CCC(N)=O)C(=O)N[C@@H](CCCCN)C(=O)N[C@H](C(=O)N[C@@H](C)C(=O)N[C@@H](CCCNC(=N)N)C(=O)N[C@H](C(=O)NCCOCCOCCOCCOCCOCCOCCOCCOCCOCCOCCOCCOCCOCCOCCOCCOCCOCCOCCOCCOCCOCCOCCOCCOCCOCCOCCOCCOCCC(N)=O)[C@@H](C)O)C(C)C [T1-e]
- fold drop in affinity for αvβ6 (αvβ6 integrin): 39 fold

Compound: CC(C)C[C@H](NC(=O)[C@H](CCCNC(=N)N)NC(=O)CNC(=O)[C@H](CC(C)C)NC(=O)[C@H](CC(=O)O)NC(=O)CNC(=O)[C@H](CCCNC(=N)N)NC(=O)CNC(=O)c1ccc(F)cc1)C(N)=O [SFLAP3-8mer, reference compound] ({Benzoyl(4-F)}-GRGDLGRL-NH2)
- % Helical Content CD Buffer [1]: 11%
- % Helical Content CD Buffer + 30% TFE [1]: 6.2%
- IC50 (αvβ6 integrin): 89 ± 6.5 nM
- DX3puroβ6 (αvβ6+)/DX3puro (αvβ6−) selectivity ratio (DX3puroβ6 (αvβ6+) cells; cell binding, 1 hour): 1.4 ± 0.2:1

Compound: VGDLTYLKK([^18F]FB)KVART (VGDLTYLKK((18F)FB″)KVART) [[^18F]P1K-a]
- intact peptide in mouse serum [2]: > 99%
- binding to DX3puroβ6 (αvβ6+) cells (DX3puroβ6 (αvβ6+) cells; 1 hour): 6.2±1.3%

Compound: CC(C)C[C@H](NC(=O)[C@H](CC(=O)O)NC(=O)CNC(=O)[C@H](CCCNC(=N)N)NC(=O)CNC(=O)c1ccc(F)cc1)C(=O)NCC(=O)N[C@@H](CCCNC(=N)N)C(=O)N[C@@H](CC(C)C)C(=O)N[C@@H](C)C(=O)N[C@@H](CCC(N)=O)C(=O)N[C@@H](CCCCN)C(=O)N[C@H](C(=O)N[C@@H](C)C(=O)N[C@@H](CCCNC(=N)N)C(=O)N[C@H](C(N)=O)[C@@H](C)O)C(C)C [SFLAP3-15mer] ({Benzoyl(4-F)}-GRGDLGRLAQKVART-NH2)
- % Helical Content CD Buffer [1]: 13.4%
- % Helical Content CD Buffer + 30% TFE [1]: 31.6%
- IC50 (αvβ6 integrin): 1.3 ± 0.2 nM
- DX3puroβ6 (αvβ6+)/DX3puro (αvβ6−) selectivity ratio (DX3puroβ6 (αvβ6+) cells; cell binding, 1 hour): 3.9 ± 0.4:1

Compound: [^18F]FB-VGDLTYLKRKATVQ ({(18F)FB″}-VGDLTYLKRKATVQ) [N-[^18F]P1Q-Scrb]
- DX3puroβ6 (αvβ6+)/DX3puro (αvβ6−) selectivity ratio (DX3puroβ6 (αvβ6+) cells): 1.7±0.06 :1
- binding to DX3puroβ6 (αvβ6+) cells (DX3puroβ6 (αvβ6+) cells; 1 hour): 2.1±0.2%

Compound: [^18F]FB-RSDLTPLFQKVART ({(18F)FB″}-RSDLTPLFQKVART) [N-[^18F]KL3Q]
- percent internalized relative to the amount bound to DX3puroβ6 (αvβ6+) cells (DX3puroβ6 (αvβ6+) cells; 1 hour): 22.8±1.3%
- binding to DX3puroβ6 (αvβ6+) cells (DX3puroβ6 (αvβ6+) cells; 1 hour): 1.3±0.1%
- fold increase in cell binding (DX3puroβ6 (αvβ6+) cells; compared to N-[18F]KL3): 2 fold

Compound: [^18F]FB-RSDLTPLF ({(18F)FB}-RSDLTPLF) [N-[^18F]KL3]
- percent internalized relative to the amount bound to DX3puroβ6 (αvβ6+) cells (DX3puroβ6 (αvβ6+) cells; 1 hour): 23.5±4.7%
- binding to DX3puroβ6 (αvβ6+) cells (DX3puroβ6 (αvβ6+) cells; 1 hour): 0.7±0.2%

Compound: CC(C)C[C@H](NC(=O)[C@H](Cc1ccc(O)cc1)NC(=O)[C@@H](NC(=O)[C@H](CC(C)C)NC(=O)[C@H](CC(=O)O)NC(=O)CNC(=O)[C@@H](NC(=O)CCOCCOCCOCCOCCOCCOCCOCCOCCOCCOCCOCCOCCOCCOCCOCCOCCOCCOCCOCCOCCOCCOCCOCCOCCOCCOCCOCCOCCNC(=O)c1ccc(F)cc1)C(C)C)[C@@H](C)O)C(=O)N[C@@H](CCCCN)C(=O)N[C@@H](CCC(N)=O)C(=O)N[C@@H](CCCCN)C(=O)N[C@H](C(=O)N[C@@H](C)C(=O)N[C@@H](CCCNC(=N)N)C(=O)N[C@H](C(=O)NCCOCCOCCOCCOCCOCCOCCOCCOCCOCCOCCOCCOCCOCCOCCOCCOCCOCCOCCOCCOCCOCCOCCOCCOCCOCCOCCOCCOCCC(N)=O)[C@@H](C)O)C(C)C [N-[^18F]T1-e]
- intact peptide in mouse serum [2]: > 99%
- intact peptide in mouse serum ([2]; 60 min): 100%
- percent internalized relative to the amount bound to DX3puroβ6 (αvβ6+) cells (DX3puroβ6 (αvβ6+) cells; 1 hour): 25.7±2.2% and 25.7±2.7%
- binding to DX3puroβ6 (αvβ6+) cells (DX3puroβ6 (αvβ6+) cells; 1 hour): 1.5±0.1%

Compound: CC(C)C[C@H](NC(=O)[C@H](CO)NC(=O)[C@H](CC(=O)O)NC(=O)[C@H](CC(C)C)NC(=O)[C@H](CC(=O)O)NC(=O)[C@@H](NC(=O)[C@H](CCCNC(=N)N)NC(=O)c1ccc(F)cc1)[C@@H](C)O)C(=O)N[C@@H](CCCNC(=N)N)C(=O)N[C@@H](CCC(N)=O)C(=O)N[C@@H](CCCCN)C(=O)N[C@H](C(=O)N[C@@H](C)C(=O)N[C@@H](CCCNC(=N)N)C(=O)N[C@H](C(N)=O)[C@@H](C)O)C(C)C [RTD-14mer] ({Benzoyl(4-F)}-RTDLDSLRQKVART-NH2)
- % Helical Content CD Buffer [1]: 18.1%
- % Helical Content CD Buffer + 30% TFE [1]: 26.2%
- IC50 (αvβ6 integrin): 0.4 ± 0.1 nM
- DX3puroβ6 (αvβ6+)/DX3puro (αvβ6−) selectivity ratio (DX3puroβ6 (αvβ6+) cells): 9.1±0.8 :1

Compound: [^18F]FB-VGDLTYLKQKVART ({(18F)FB″}-VGDLTYLKQKVART) [N-[^18F]P1Q]
- percent internalized relative to the amount bound to DX3puroβ6 (αvβ6+) cells (DX3puroβ6 (αvβ6+) cells; 1 hour): 10.2±1.2%
- binding to DX3puroβ6 (αvβ6+) cells (DX3puroβ6 (αvβ6+) cells; 1 hour): 5.6±0.2% and 2.1±0.2% and 5.6%

Compound: FB-RGDLQVLA ({FB}-RGDLQVLA) [A20-8mer, reference compound]
- % Helical Content CD Buffer [1]: 6.7%
- % Helical Content CD Buffer + 30% TFE [1]: 6.9%
- DX3puroβ6 (αvβ6+)/DX3puro (αvβ6−) selectivity ratio (DX3puroβ6 (αvβ6+) cells; cell binding, 1 hour): 7.8±0.5 :1

Compound: CC(C)C[C@H](NC(=O)[C@H](Cc1ccc(O)cc1)NC(=O)[C@@H](NC(=O)[C@H](CC(C)C)NC(=O)[C@H](CC(=O)O)NC(=O)CNC(=O)[C@@H](NC(=O)CCOCCOCCOCCOCCOCCOCCOCCOCCNC(=O)c1ccc(F)cc1)C(C)C)[C@@H](C)O)C(=O)N[C@@H](CCCCN)C(=O)N[C@@H](CCC(N)=O)C(=O)N[C@@H](CCCCN)C(=O)N[C@H](C(=O)N[C@@H](C)C(=O)N[C@@H](CCCNC(=N)N)C(=O)N[C@H](C(=O)NCCOCCOCCOCCOCCOCCOCCOCCOCCOCCOCCOCCOCCOCCOCCOCCOCCOCCOCCOCCOCCOCCOCCOCCOCCOCCOCCOCCOCCC(N)=O)[C@@H](C)O)C(C)C [T1-c]
- fold drop in affinity for αvβ6 (αvβ6 integrin): 50 fold

Compound: CC(C)C[C@H](NC(=O)[C@H](Cc1ccc(O)cc1)NC(=O)[C@@H](NC(=O)[C@H](CC(C)C)NC(=O)[C@H](CC(=O)O)NC(=O)CNC(=O)[C@@H](NC(=O)c1ccc(CNC(=O)CCOCCOCCOCCOCCOCCOCCOCCOCCOCCOCCOCCOCCOCCOCCOCCOCCOCCOCCOCCOCCOCCOCCOCCOCCOCCOCCOCCOCCNC(=O)c2ccc(F)cc2)cc1)C(C)C)[C@@H](C)O)C(=O)N[C@@H](CCCCN)C(=O)N[C@@H](CCC(N)=O)C(=O)N[C@@H](CCCCN)C(=O)N[C@H](C(=O)N[C@@H](C)C(=O)N[C@@H](CCCNC(=N)N)C(=O)N[C@H](C(=O)NCCOCCOCCOCCOCCOCCOCCOCCOCCOCCOCCOCCOCCOCCOCCOCCOCCOCCOCCOCCOCCOCCOCCOCCOCCOCCOCCOCCOCCC(N)=O)[C@@H](C)O)C(C)C [T1-g]
- fold higher binding to αvβ6-integrin (αvβ6 integrin; ELISA, compared to T1-e): 2 fold

Compound: CC(C)C[C@H](NC(=O)[C@H](CO)NC(=O)[C@H](CC(=O)O)NC(=O)[C@H](CC(C)C)NC(=O)[C@H](CC(=O)O)NC(=O)[C@@H](NC(=O)[C@H](CCCNC(=N)N)NC(=O)c1ccc(F)cc1)[C@@H](C)O)C(=O)N[C@@H](CCCNC(=N)N)C(=O)N[C@H](C(N)=O)[C@@H](C)O [RTD-9mer, reference compound]
- % Helical Content CD Buffer [1]: 2.7%
- % Helical Content CD Buffer + 30% TFE [1]: 2.1%
- IC50 (αvβ6 integrin): 22 ± 3 nM
- DX3puroβ6 (αvβ6+)/DX3puro (αvβ6−) selectivity ratio (DX3puroβ6 (αvβ6+) cells; cell binding, 1 hour): 1.7±0.2 :1

Compound: CC(C)C[C@H](NC(=O)[C@H](Cc1ccc(O)cc1)NC(=O)[C@@H](NC(=O)[C@H](CC(C)C)NC(=O)[C@H](CC(=O)O)NC(=O)CNC(=O)[C@@H](NC(=O)CCOCCOCCOCCOCCNC(=O)c1ccc(F)cc1)C(C)C)[C@@H](C)O)C(=O)N[C@@H](CCCCN)C(=O)N[C@@H](CCC(N)=O)C(=O)N[C@@H](CCCCN)C(=O)N[C@H](C(=O)N[C@@H](C)C(=O)N[C@@H](CCCNC(=N)N)C(=O)N[C@H](C(=O)NCCOCCOCCOCCOCCOCCOCCOCCOCCOCCOCCOCCOCCOCCOCCOCCOCCOCCOCCOCCOCCOCCOCCOCCOCCOCCOCCOCCOCCC(N)=O)[C@@H](C)O)C(C)C [T1-b]
- fold drop in affinity for αvβ6 (αvβ6 integrin): 13 fold

Compound: CC(C)C[C@H](NC(=O)[C@H](Cc1ccc(O)cc1)NC(=O)[C@@H](NC(=O)[C@H](CC(C)C)NC(=O)[C@H](CC(=O)O)NC(=O)CNC(=O)[C@@H](NC(=O)COCCOCCNC(=O)c1ccc(F)cc1)C(C)C)[C@@H](C)O)C(=O)N[C@@H](CCCCN)C(=O)N[C@@H](CCC(N)=O)C(=O)N[C@@H](CCCCN)C(=O)N[C@H](C(=O)N[C@@H](C)C(=O)N[C@@H](CCCNC(=N)N)C(=O)N[C@H](C(=O)NCCOCCOCCOCCOCCOCCOCCOCCOCCOCCOCCOCCOCCOCCOCCOCCOCCOCCOCCOCCOCCOCCOCCOCCOCCOCCOCCOCCOCCC(N)=O)[C@@H](C)O)C(C)C [T1-a]
- fold drop in affinity for αvβ6 (αvβ6 integrin): 24 fold

Compound: [^18F]FB-VGDLTYLKKKVART ({(18F)FB″}-VGDLTYLKKKVART) [N-[^18F]P1K-b]
- binding to DX3puroβ6 (αvβ6+) cells (DX3puroβ6 (αvβ6+) cells; 1 hour): 7.9±0.7%

Compound: FB-RGDLQVLAQKVART [A20-14mer, reference compound]
- % Helical Content CD Buffer [1]: 15.1%
- % Helical Content CD Buffer + 30% TFE [1]: 35.7%
- DX3puroβ6 (αvβ6+)/DX3puro (αvβ6−) selectivity ratio (DX3puroβ6 (αvβ6+) cells; cell binding, 1 hour): 8.4±0.4 :1
